Test results published in patent US20260041093A1, “Ionic Derivatives Of Aromatic Carboxylic Acid For Use As Plant Stimulants, Method For Stimulating Plants And Use Of These Derivatives For Manufacturing Compositions For Stimulating Plants” (FUNDACJA UNIWERSYTETU IM. ADAMA MICKIEWICZA W POZNANIU, priority 2022, published 2026).
Where two headings read alike, the source gives them in different places.

System: winter wheat
Method: The experiment was established using the long strip method, in four repetitions Gross area of each plot was 48 m^2, while the harvest area was 23.25 m^2 net. Following variants of treatment were tested: • 1. Control—no stimulant application, standard fungicide programme • 2. Stimulant application at BBCH 32, standard fungicide programme • 3. Stimulant application at BBCH 32, no fungicide application • 4. Stimulant application at BBCH 55 and 10-12 days later, standard fungicide programme • 5. […] In this experiment, standard NPK fertilization was applied, using both bulk and liquid fertilizers.
The experiment was established using the long strip method, in four repetitions Gross area of each plot was 48 m2, while the harvest area was 23.25 m2 net. Following variants of treatment were tested: • 1. Control—no stimulant application, standard fungicide programme, • 2. Stimulant application at BBCH 32, standard fungicide programme • 3. Stimulant application at BBCH 32, no fungicide application • 4. Stimulant application at BBCH 55 and 10-12 days later, standard fungicide programme • 5. […] In the experiment, uniform NPK fertilization was applied, using both bulk and liquid fertilizers.

[1] = BBCH 32, standard fungicide protection, 80 mg/L, benzothiadiazole salt 30 mg/L
[2] = BBCH 32, stimulant only, 80 mg/L, benzothiadiazole salt 30 mg/L
[3] = BBCH 55, standard fungicide protection, 80 mg/L, benzothiadiazole salt 30 mg/L
[4] = BBCH 55, without fungicide, 80 mg/L, benzothiadiazole salt 30 mg/L
[5] = first sampling date, 80 mg/L, benzothiadiazole salt 30 mg/L
[6] = last sampling date, late milk, 80 mg/L, benzothiadiazole salt 30 mg/L

C[N+](C)(C)CCO.O=C([O-])c1cccc2nnsc12
increase in calcium uptake [1]: 7%
increase in gluten content of wheat grain [1]: 9%
increase in magnesium uptake [1]: 8%
increase in nitrogen uptake [1]: 7%
increase in phosphorus uptake [1]: 9%
increase in potassium uptake [1]: 7%
increase in protein content of wheat grain [1]: 12%
increase in calcium uptake [2]: 7%
increase in gluten content of wheat grain [2]: 8%
increase in magnesium uptake [2]: 9%
increase in nitrogen uptake [2]: 8%
increase in phosphorus uptake [2]: 9%
increase in potassium uptake [2]: 8%
increase in protein content of wheat grain [2]: 11%
increase in calcium uptake [3]: 12%
increase in gluten content of wheat grain [3]: 10%
increase in magnesium uptake [3]: 11%
increase in nitrogen uptake [3]: 12%
increase in phosphorus uptake [3]: 11%
increase in potassium uptake [3]: 7%
increase in protein content of wheat grain [3]: 12%
increase in calcium uptake [4]: 8%
increase in gluten content of wheat grain [4]: 9%
increase in magnesium uptake [4]: 10%
increase in nitrogen uptake [4]: 15%
increase in phosphorus uptake [4]: 11%
increase in potassium uptake [4]: 6%
increase in protein content of wheat grain [4]: 11%
fresh weight of aboveground part higher than control (first sampling date (beginning of shooting), first of two sprayed objects (with / without fungicide, respectively), 80 mg/L, benzothiadiazole salt 30 mg/L): 11%
dry root mass higher than control [5]: 14%
fresh root mass higher than control [5]: 12%
dry weight of aboveground part higher than control (first sampling date, first of two sprayed objects, 80 mg/L, benzothiadiazole salt 30 mg/L): 10%
fresh weight of aboveground part higher than control (first sampling date, second of two sprayed objects (with / without fungicide, respectively), 80 mg/L, benzothiadiazole salt 30 mg/L): 14%
dry weight of aboveground part higher than control (first sampling date, second of two sprayed objects, 80 mg/L, benzothiadiazole salt 30 mg/L): 14%
SPAD chlorophyll readings versus control (first term, stimulant at BBCH 32, with or without fungicide): significantly higher
more aboveground biomass, BBCH 55 treatment compared to control [6]: 30%
more aboveground biomass, BBCH 55 treatment compared to plants sprayed at an earlier stage [6]: 13%
more root biomass, BBCH 55 treatment compared to control [6]: 21%
more root biomass, BBCH 55 treatment compared to plants sprayed at an earlier stage [6]: 14%
fresh and dry root weight versus other experimental facilities (second sampling date): comparable
fresh and dry matter yields versus other experimental facilities (second sampling date, end of heading): comparable
SPAD chlorophyll readings (second term, stimulant at BBCH 32 without fungicide versus other objects): highest
chlorophyll content of wheat leaves versus control (third term, with or without fungicide): significantly higher
